Source: US6855308B2, “PACAP compositions and methods for tumor imaging and therapy” (Thomas Jefferson University, priority 2001, dated 2005)
Entries after “also recorded” stand apart in the source; their conditions may differ. Values belong to the compound of their own block, whether it stands above or below them. Ends that are not written are not given here. * marks the point of attachment. DTPA = O=C(O)CN(CCN(CC(=O)O)CC(=O)O)CCN(CC(=O)O)CC(=O)*

How the values were obtained:
breast tumors = assay: tumor uptake in tumor-bearing mice; settings: 24 hr post-injection
Method: (§1) Approximately 5×10^6 viable cells from either tumor cell line are implanted in the right thigh of each mouse, and tumors are allowed to form. […] Animals are sacrificed at 15 min, 1 hr, 2 hr, 4 hr and 24 hr post-injection, and % of ID/g tissue is determined in all tissues. A control group of tumor-bearing mice is injected with PACAP27 mono-iodinated with ^125I. […] All animals are imaged using a GE STARCAM gamma camera equipped with a dedicated computer and a low energy parallel hole collimator.
(§2) The co-injected ^99mTc-TP 3475 and ^111In-DTPA-D-Phe^1-Octreotide in the mouse tissues were counted by using the characteristic energy windows for their respective radionuclides (±15 or 20%); e.g., 140 KeV for ^99mTc, and 173 KeV and 247 KeV for ^111In. The ^111In counts in the tissues were again determined when ^99mTc was completely decayed (e.g., 10-12 half-lives).

[1] = type: physicochemical
Method: For the metallization reaction, the vial contents were allowed to come to ambient temperature, and 10-40 mCi ^99mTc in 200 μl 0.9% NaCl was injected into the vial. The mixture was incubated at 100° C. for 30 min, and the pH of the reaction mixture was raised to 6-6.5 by addition of 1 ml 0.1 M Na2HPO4. One-hundred twenty-five mg of Na-ascorbate was added as a stabilizing agent. […] The yields at 22° C. are quantitative as determined by HPLC, producing a single peak at Rt. 12.5 min.

[2] = set-up: species or system Sprague-Dawley rats; settings: rat, in vivo, iv
Method: The blood clearance of ^99mTc-TP 3475 was studied in Sprague-Dawley rats as follows. Three Sprague Dawley rats, each weighing approximately 250 grams, were injected through one lateral tail vein with one mCi of ^99mTc-TP 3475, and serial blood samples were drawn in triplicate through the other lateral tail vein at 1, 5, 10, 15, and 30 minutes post-injection, and at 1, 2, 4, 6, 18 and 24 hours post injection. The blood samples were weighed, and radioactivity was counted against a standard ^99mTc solution prepared at the time of injection using standard scintillation counting techniques. The % ID/g plotted as a function of time.

T47D xenografts = assay: receptor blocking study with PACAP in tumor-bearing mice; type: in vivo; settings: PACAP pre-injected; nude mice with T47D xenografts
Method: In order to determine receptor specificity of […] in human breast tumors, receptor blocking studies with PACAP were performed. In nude mice with T47D xenografts, ^99mTc-TP 3475 tumor uptake was reduced by approximately 50% when PACAP was pre-injected.

in vivo = settings: nude, mouse, iv, total radioactivity
Method: as §1, §2

primary breast cancers = settings: cited from earlier work
[3] = test system: internal anal sphincter (IAS) smooth muscle; assay: basal tension of opossum internal anal sphincter (IAS) smooth muscle; set-up: species or system opossum (Didelphis virginiana); settings: 10^−5 M concentration
Method: PACAP27 is known to cause a concentration-dependent fall in the basal tension of IAS, by the assay described in Rattan S et al., J. Pharmcol. Exper. Thera. 263: 722-728, 1997, the entire disclosure of which is herein incorporated by reference. This IAS assay was performed with increasing concentrations of TP 3475 until a maximum fall is reached, essentially as described below. PACAP27 was used as a control.
[…]. The large blood vessels and extraneous tissues including the external […] were removed, and the anal canal was opened and pinned flat with the mucosal side up on a dissecting tray containing oxygenated Krebs' solution (NaCl, 118.07; KCl, 4.69; CaCl2, 2.52; MgS04, 1.16; NaH2PO4, 1.01; NaHC03, 25; and glucose, 11.10). The mucosa was removed, and internal anal sphincter circular smooth muscle strips (approximately 2 mm×1 cm) were prepared from the lowermost part of the anal canal.
Measurement of isometric tension—The IAS smooth muscle strips were transferred to temperature-controlled 2 ml “muscle baths” containing Krebs' solution, bubbled continuously with a mixture of 95% O2-5% CO2. […] Isometric tensions were recorded on a Beckman Dynograph recorder (Beckman Instruments, Schiller Park, Ill.). […] Both optimal length and base-line were determined as described in Rattan S et al., 1997, supra.

normal lung membrane = settings: cited from earlier work
[4] = test system: PACAP, VIP-R1 and VIP-R2 receptors; settings: cited from earlier work
adenylate cyclase = settings: pituitary cells; cited from earlier work
[5] = reduced from 100 for PACAP27; cited from earlier work

tumor uptake (breast tumors): 0.18±0.0 % ID/g
Compound: [C-]#[N+]CC(C)(C)OC.[C-]#[N+]CC(C)(C)OC.[C-]#[N+]CC(C)(C)OC.[C-]#[N+]CC(C)(C)OC.[C-]#[N+]CC(C)(C)OC.[C-]#[N+]CC(C)(C)OC.[Tc] [^99mTc-Sesta-MIBI]

Compound: CC[C@H](C)[C@H](NC(=O)CNC(=O)[C@H](CC(=O)O)NC(=O)[C@H](CO)NC(=O)[C@@H](N)Cc1c[nH]cn1)C(=O)N[C@@H](Cc1ccccc1)C(=O)N[C@H](C(=O)N[C@@H](CC(=O)O)C(=O)N[C@@H](CO)C(=O)N[C@@H](Cc1ccc(O)cc1)C(=O)N[C@@H](CO)C(=O)N[C@@H](CCCNC(=N)N)C(=O)N[C@@H](Cc1ccc(O)cc1)C(=O)N[C@@H](CCCNC(=N)N)C(=O)N[C@@H](CCCCN)C(=O)N[C@@H](CCC(N)=O)C(=O)N[C@@H](CCSC)C(=O)N[C@@H](C)C(=O)N[C@H](C(=O)N[C@@H](CCCCN)C(=O)N[C@@H](CCCCN)C(=O)N[C@@H](Cc1ccc(O)cc1)C(=O)N[C@@H](CC(C)C)C(=O)N[C@@H](C)C(=O)N[C@@H](C)C(=O)N[C@H](C(=O)N[C@@H](CC(C)C)C(=O)NCCCC(=O)NCC(=O)N[C@H](C)C(=O)NCC(=O)NCC(=O)O)C(C)C)C(C)C)[C@@H](C)O [^99mTc-TP 3475, metal not drawn]
stability [1]: stable for 24 hr | blood clearance α-t½ ([2]; Sprague-Dawley): approximately 6 min | blood clearance β-t½ ([2]; Sprague-Dawley): approximately 90 min | time in which 75% of the radioactivity is cleared from the circulation [2]: about 12 minutes | reduction of tumor uptake (T47D xenografts): approximately 50% | tissue uptake at 24 h (in vivo): ~0.2 %ID/g

Compound: C[C@@H](O)[C@@H]1NC(=O)[C@H](CCCCN)NC(=O)[C@@H](Cc2c[nH]c3ccccc23)NC(=O)[C@H](Cc2ccccc2)NC(=O)[C@@H](NC(=O)[C@@H](Cc2ccccc2)NC(=O)CN(CCN(CCN(CC(=O)O)CC(=O)O)CC(=O)O)CC(=O)O)CSSC[C@@H](C(=O)N[C@H](CO)[C@@H](C)O)NC1=O [^111In-DTPA-D-Phe^1-Octreotide, metal not drawn]
positive scintigraphy (primary breast cancers; 52 primary breast cancers): 75% | patients in whom imaging of axillae detected non-palpable, cancer-containing lymph nodes (primary breast cancers; patients with histologically-proven metastases): 4 of 13 | tissue uptake at 24 h (in vivo): 0.09 ± 0.01 %ID/g

Compound: HSDGIFTDSYSRYRKQMAVKKYLAAVL [PACAP27]
% fall in IAS tension [3]: equivalent fall in IAS tension; also recorded: equal | IC50 (normal lung membrane): ~1.5 nM | receptor binding affinity [4]: binds with high affinity to PACAP, VIP-R1 and VIP-R2 receptors | potency in stimulating adenylate cyclase relative to VIP28 (adenylate cyclase): ten times more potent

Compound: PACAP27 linked to DTPA at its N-terminus: PACAP27 linked to DTPA at its N-terminus (Reubi et al. 1997) ({DTPA}-HSDGIFTDSYSRYRKQMAVKKYLAAVL; ends and bridges not checked; UniProt P18509 132-158, looked up)
biological activity [5]: < 0.01

Compound: TP 3475: PACAP27 linked via a C-terminal Aba spacer to a Gly-(D)Ala-Gly-Gly chelating agent; SEQ ID NO: 5 (HSDGIFTDSYSRYRKQMAVKKYLAAVLXGAGG; C-terminal Aba spacer, Gly-(D)Ala-Gly-Gly chelator; PACAP analog TP 3475)
% fall in IAS tension [3]: equivalent fall in IAS tension; also recorded: equal

Compound: VIP28: 28-amino acid vasoactive intestinal peptide
IC50 (normal lung membrane): ~15 nM | receptor binding affinity [4]: binds with high affinity only to VIP-R1 and VIP-R2 receptors
